In patent US12508278B2, “Lipid nanoparticle compositions and methods of formulating the same” (ModernaTX, Inc., priority 2021, dated 2025):

Key:
Assay type in all cases: physicochemical
[1] = IG (lipid-mRNA adduct impurity) in binary mixtures of RNA and Compound III, ion pair reversed phase HPLC; conditions: for level of IG compared to control binary mixtures: 1 mM agent; for initial rate of IG formation: 5 mM agent, Compound III binaries
Description: To detect and quantify the amount of IG present in LNP formulations comprising polynucleotides and lipid, a protocol was developed (FIG. 2) that included (1) extraction of the polynucleotide molecules (e.g. precipitation, liquid: liquid extraction); (2) assessment of integrity (e.g. purity, length) of the isolated polynucleotides by known methods (e.g. fragment analyzer, gel electrophoresis); and (3) analysis of the isolated polynucleotides by HPLC.
(§1) RNA was extracted from the LNP formulation by precipitation in ammonium acetate in isopropanol; resuspended in water to target a final RNA concentration of 0.1 mg/mL; and assessed by fragment analyzer capillary electrophoresis and ion pair reversed phase HPLC (performed on a Thermo DNApac RP 100×2.1 mm column at 65° C., with mobile phases containing 50 mM dibutylammonium acetate and 100 mM triethylammonium acetate in water and acetonitrile). Elution with an acetonitrile gradient provided an RNA separation primarily driven by mRNA length and sensitive to any added hydrophobic elements. Two prominent peaks were apparent on the HPLC chromatogram (FIG. 2), including a “main peak” comprising non-adduct mRNA and an “IG” peak comprising mRNA with one or more covalent modifications. The mass fraction of RNA containing at least one lipid adduct was determined by integrating the area under the curve (AUC) of all RNA peaks (including products shorter than the full-length product, the full-length product, and the hydrophobic modified RNA) and taking the late-eluting region as an area percent of the total peak area.
Compound III was dissolved in ethanol at a concentration of 4 mg/mL, and the RNA diluted in sodium acetate buffer pH 5.5; the RNA and lipids were then mixed in 25% ethanol. Samples were held at 25° C., and the RNA was periodically extracted by precipitation in isopropanol and analyzed by ion pair reversed phase (FIGS. 5 and 6A, data marked by *).

[2] = IG in Compound III LNPs buffered with PBS or Tris
[3] = IG in binary mixtures of RNA and Compound VI, ion pair reversed phase HPLC; conditions: control binary mixture
Procedure: as §1
To determine if treatment with reducing agents or anti-oxidants confers reductions in the percentage of IG formed in binary mixtures of RNA and Compound VI, binary mixtures were prepared with RNA and Compound VI in which the RNA component was prepared with select reducing agents at 5 mM concentration and the percentage of IG in the resulting binary mixtures was quantified according to the protocol detailed in Example 1. The control binary mixtures of RNA and Compound VI contained IG at ˜55 percent after 1 day, ˜70 percent after 2 days, and ˜80 percent after 13 days. In contrast, treatment of binary mixtures of RNA and Compound VI with select reducing agents conferred IG at ˜45 percent after 1 day, ˜55% after 2 days, and ˜60-70% after 13 days (FIG. 17).

[4] = IG in Compound VI LNPs stored in PBS or Tris; conditions: 20 mM Tris, 8% sucrose, pH 8 vs 1xPBS pH 7.2, stored at 5 C

Q: For `O=C(O)CCCC[C@@H]1CCSS1` (racemic) [lipoic acid], which “level of IG compared to control binary mixtures” value ([1]; 25 C, after 18 hours) is on record?
A: reduced levels of IG

Q: Which “percentage of IG, Tris compared to PBS” value ([2]; 100 mM Tris-HCl pH 7.4 vs 1xPBS) does the source give for `CCCCCCCCCCCOC(=O)CCCCCN(CCO)CCCCCCCC(=O)OC(CCCCCCCC)CCCCCCCC` [Compound III, heptadecan-9-yl 8-((2-hydroxyethyl)(6-oxo-6-(undecyloxy)hexyl)amino)octanoate] here?
A: lower

Q: What about the “percentage of IG over time” value ([2]; buffered with Tris (100 mM Tris-HCl pH 7.4), stored at 5 C or 20 C) of the same molecule?
A: around 10%

Q: And the “IG formation over time” value ([1]; chromatographically purified Compound III, up to 99% purity, no detectable N-oxide)?
A: still formed IG over time

Q: And the “percentage of IG” value ([1]; control binary mixture (Example 6), stored at 25 C, after 1 day)?
A: ~15%

Q: What about the “percentage of IG” value ([1]; control binary mixture (Example 6), stored at 25 C, after 3 days) of the same molecule?
A: ~35%

Q: And the “percentage of IG” value ([1]; control binary mixture (Example 6), stored at 25 C, after 7 days)?
A: ~40%

Q: And the “percentage of IG” value ([1]; control binary mixture (Example 11), 25 C, after 18 hours)?
A: ~20%

Q: And the “percentage of IG” value ([1]; control binary mixture without agent (Example 7), 25 C, after 18 hours)?
A: ~35%

Q: What about the “percentage of IG” value ([1]; control binary mixture without agent (Example 7), after 13 days at 25 C) of the same molecule?
A: ~45%

Q: And the “percentage of IG” value ([1]; control binary mixture, Compound III not pre-treated (Example 5), after 0 days)?
A: ~10%

Q: And the “percentage of IG” value ([1]; control binary mixture, Compound III not pre-treated (Example 5), after 5 days)?
A: ~40%

Q: And the “percentage of IG” value ([1]; control binary mixture, Compound III not pre-treated (Example 5), after 25 days)?
A: ~45%

Q: Which results are given for `CCCCCCCCCN(CCCCCCCCC)CCN(CCCCCCCCC)CC(=O)N1CCN(C(=O)CN(CCCCCCCCC)CCCCCCCCC)CC1` [Compound VI]?
A: percentage of IG ([3]; after 1 day): ~55%; percentage of IG ([3]; after 2 days): ~70%; percentage of IG ([3]; after 13 days): ~80%; percentage of IG, Tris compared to PBS [4]: lower

Q: For `Clc1ccc(C(c2ccc(Cl)cc2)C(Cl)(Cl)Cl)cc1` [DDT, dichlorodiphenyltrichloroethane], which “level of IG compared to control binary mixtures” value ([1]; 25 C, after 18 hours) is on record?
A: reduced levels of IG

Q: With `O[C@H](CS)[C@@H](O)CS` [DTE, dithioerythritol] as the molecule, how does the “level of IG compared to control binary mixtures” value ([1]; 25 C, after 18 hours) read?
A: reduced levels of IG

Q: With `O[C@H](CS)[C@H](O)CS` [DTT, dithiothreitol] as the molecule, how does the “level of IG compared to control binary mixtures” value ([1]; 25 C, after 18 hours) read?
A: reduced levels of IG

Q: For `CC(=O)N[C@@H](CS)C(=O)O` [N-acetyl cysteine], which “level of IG compared to control binary mixtures” value ([1]; 25 C, after 18 hours) is on record?
A: reduced levels of IG

Q: What about the “initial rate of IG formation” value [1] of the same molecule?
A: effective at eliminating the fast initial rate of IG formation

Q: With `O=C(O)CCP(CCC(=O)O)CCC(=O)O` [TCEP, tris(2-carboxyethyl)phosphine] as the molecule, how does the “level of IG compared to control binary mixtures” value ([1]; 25 C, after 18 hours) read?
A: reduced levels of IG

Q: With `NCCSSCCN` [cystamine] as the molecule, how does the “level of IG compared to control binary mixtures” value ([1]; 25 C, after 18 hours) read?
A: reduced levels of IG

Q: For `N[C@@H](CCC(=O)N[C@@H](CS)C(=O)NCC(=O)O)C(=O)O` [glutathione], which “level of IG compared to control binary mixtures” value ([1]; 25 C, after 18 hours) is on record?
A: reduced levels of IG

Q: With `N[C@@H](CCS)C(=O)O` [homo cysteine, homocysteine] as the molecule, how does the “level of IG compared to control binary mixtures” value ([1]; 25 C, after 18 hours) read?
A: reduced levels of IG

Q: Which “level of IG compared to control binary mixtures” value ([1]; 25 C, after 18 hours) does the source give for `O=S([O-])S(=O)(=O)[O-].[K+].[K+]` [potassium metabisulfite] here?
A: reduced levels of IG

Q: What about the “initial rate of IG formation” value [1] of the same molecule?
A: effective at eliminating the fast initial rate of IG formation

Q: With `[BH4-].[Na+]` [sodium borohydrate] as the molecule, how does the “level of IG compared to control binary mixtures” value ([1]; 25 C, after 18 hours) read?
A: reduced levels of IG

Q: Which results are given for `O=S([O-])S(=O)(=O)[O-].[Na+].[Na+]` [sodium metabisulfite]?
A: initial rate of IG formation [1]: effective at eliminating the fast initial rate of IG formation; percentage of IG ([1]; higher concentrations of agent before formulation, removed by dialysis with 20 mM Tris, t=0 h and 24 hours): reduced

Q: Which “level of IG compared to control binary mixtures” value ([1]; 25 C, after 18 hours) does the source give for `O=C([O-])CS.[Na+]` [sodium thioglycolate] here?
A: reduced levels of IG

Q: With `O=S([O-])([O-])=S.[Na+].[Na+]` [sodium thiosulfate] as the molecule, how does the “level of IG compared to control binary mixtures” value ([1]; 25 C, after 18 hours) read?
A: reduced levels of IG
